Measured values as given in the supplement of paper PMC5908809.

What was measured:
[1] = test system: normal NK cells expanded with K562-aAPC; test: percent inhibition of viability; higher = more inhibition; settings: 72 h, IL-2 2.5 ng/mL
Procedure: (§1)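 Drug sensitivity and resistance testing on K562-aAPC-expanded normal NK cells: 5 concentrations (10-fold steps over a 10,000-fold range), 72 h at 37 °C, viability by CellTiter-Glo normalised to DMSO and benzethonium chloride controls; DSS from the fitted curve.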

DERL-7 (IL-2 2.5 ng/mL) [2] = test: as above; settings: 72 h
IMC-1 (IL-2 20 ng/mL) [3] = test: as above; settings: 72 h
KAI3 (IL-2 2.5 ng/mL) [4] = test: as above; settings: 72 h
KHYG-1 (IL-2 2.5 ng/mL) [5] = test: as above; settings: 72 h
NK-92 (IL-2 2.5 ng/mL) [6] = test: as above; settings: 72 h
NK-YS (IL-2 2.5 ng/mL) [7] = test: as above; settings: 72 h
NKL (IL-2 2.5 ng/mL) [8] = test: as above; settings: 72 h
SNK-6 (IL-2 2.5 ng/mL) [9] = test: as above; settings: 72 h
YT (IL-2 2.5 ng/mL) [10] = test: as above; settings: 72 h
[11] = test system: normal primary NK cells, pool 1 (3 donors) (IL-2 2.5 ng/mL); test: as above; settings: 72 h
[12] = test system: normal primary NK cells, pool 1 (3 donors), resting (IL-2 0 ng/mL); test: as above; settings: 72 h
[13] = test system: normal primary NK cells, pool 2 (3 donors) (IL-2 2.5 ng/mL); test: as above; settings: 72 h
[14] = test system: normal primary NK cells, pool 3 (3 donors) (IL-2 2.5 ng/mL); test: as above; settings: 72 h
[15] = test system: normal NK cells expanded with K562-aAPC; test: drug sensitivity score (DSS) (DSS units); higher = more sensitive; extreme values may be limits of the assay; settings: 72 h; IL-2 2.5 ng/mL
Procedure: as §1

DERL-7 (IL-2 2.5 ng/mL) [16] = test: as above; settings: 72 h
IMC-1 (IL-2 20 ng/mL) [17] = test: as above; settings: 72 h
KAI3 (IL-2 2.5 ng/mL) [18] = test: as above; settings: 72 h
KHYG-1 (IL-2 2.5 ng/mL) [19] = test: as above; settings: 72 h
NK-92 (IL-2 2.5 ng/mL) [20] = test: as above; settings: 72 h
NK-YS (IL-2 2.5 ng/mL) [21] = test: as above; settings: 72 h
NKL (IL-2 2.5 ng/mL) [22] = test: as above; settings: 72 h
SNK-6 (IL-2 2.5 ng/mL) [23] = test: as above; settings: 72 h
YT (IL-2 2.5 ng/mL) [24] = test: as above; settings: 72 h
[25] = test system: normal primary NK cells, pool 1 (3 donors) (IL-2 2.5 ng/mL); test: as above; settings: 72 h
[26] = test system: normal primary NK cells, pool 1 (3 donors), resting (IL-2 0 ng/mL); test: as above; settings: 72 h
[27] = test system: normal primary NK cells, pool 2 (3 donors) (IL-2 2.5 ng/mL); test: as above; settings: 72 h
[28] = test system: normal primary NK cells, pool 3 (3 donors) (IL-2 2.5 ng/mL); test: as above; settings: 72 h

C#Cc1cccc(Nc2ncnc3cc(OC)c(OCCCCCCC(=O)NO)cc23)c1 [CUDC-101] (max concentration tested 10000 nM)
percent inhibition of viability [%]
Settings	1 nM	10 nM	100 nM	1000 nM	10000 nM
DERL-7 (IL-2 2.5 ng/mL) [2]	-3.07	-2.96	19.3	100	101
IMC-1 (IL-2 20 ng/mL) [3]	-4.07	-5.13	-1.06	48.9	101
KAI3 (IL-2 2.5 ng/mL) [4]	-3.15	0.88	27.8	77.2	105
KHYG-1 (IL-2 2.5 ng/mL) [5]	1.82	3.01	36.4	99.1	106
NK-92 (IL-2 2.5 ng/mL) [6]	9.73	-1.07	19.2	85.7	105
NK-YS (IL-2 2.5 ng/mL) [7]	-4.37	0.36	0.68	57.3	105
NKL (IL-2 2.5 ng/mL) [8]	-15.6	-12.1	1.83	90.5	108
SNK-6 (IL-2 2.5 ng/mL) [9]	11.7	10.8	24.7	78.1	100
YT (IL-2 2.5 ng/mL) [10]	0.23	0.94	9.37	95.4	106
[1]	-2.26	1.39	1.83	75.4	101
[11]	-3.28	-4.06	12.8	88.8	98.8
[12]	10.4	0.86	30.2	78.6	92.4
[13]	-9.31	-5.49	9.37	84.5	97
[14]	-12	1.9	2.2	82.8	99.5

Settings	drug sensitivity score
DERL-7 (IL-2 2.5 ng/mL) [16]	21.1
IMC-1 (IL-2 20 ng/mL) [17]	11.6
KAI3 (IL-2 2.5 ng/mL) [18]	17.9
KHYG-1 (IL-2 2.5 ng/mL) [19]	22.6
NK-92 (IL-2 2.5 ng/mL) [20]	18.1
NK-YS (IL-2 2.5 ng/mL) [21]	12.4
NKL (IL-2 2.5 ng/mL) [22]	16.5
SNK-6 (IL-2 2.5 ng/mL) [23]	17.6
YT (IL-2 2.5 ng/mL) [24]	18.8
[15]	14.3
[25]	17.9
[26]	18.1
[27]	16.7
[28]	15.3

O=C(c1ccc(OCCN2CCCCC2)cc1)c1c(-c2ccc(O)cc2)sc2cc(O)ccc12 [Raloxifene] (max concentration tested 10000 nM)
percent inhibition of viability [%]
Settings	1 nM	10 nM	100 nM	1000 nM	10000 nM
DERL-7 (IL-2 2.5 ng/mL) [2]	-6.41	2.29	1.8	13.7	68.8
IMC-1 (IL-2 20 ng/mL) [3]	0.84	1.43	3.84	8.59	10.4
KAI3 (IL-2 2.5 ng/mL) [4]	-6.87	-0.15	5.98	4.92	96.1
KHYG-1 (IL-2 2.5 ng/mL) [5]	-4.91	3.37	0.98	11	54.9
NK-92 (IL-2 2.5 ng/mL) [6]	1.94	6.91	-0.59	-1.98	92.6
NK-YS (IL-2 2.5 ng/mL) [7]	0.85	-3.33	4.79	5.35	40.5
NKL (IL-2 2.5 ng/mL) [8]	1.76	7.99	-6.69	11.2	52.2
SNK-6 (IL-2 2.5 ng/mL) [9]	-9.5	-3.4	-9.29	-36.4	67.1
YT (IL-2 2.5 ng/mL) [10]	-1.19	5.28	-0.98	1	77
[1]	-3.9	-1.26	0.77	10.2	53.2
[11]	1.01	-6.07	1.09	-7.43	20.9
[12]	2.49	-4.47	-6.62	-34	38.5
[13]	-6.02	-3.78	1.06	2.77	29.1
[14]	-5.87	-1.12	5.04	8.98	16.6

Settings	drug sensitivity score
DERL-7 (IL-2 2.5 ng/mL) [16]	6.02
IMC-1 (IL-2 20 ng/mL) [17]	0
KAI3 (IL-2 2.5 ng/mL) [18]	6.04
KHYG-1 (IL-2 2.5 ng/mL) [19]	4.74
NK-92 (IL-2 2.5 ng/mL) [20]	4.99
NK-YS (IL-2 2.5 ng/mL) [21]	2.92
NKL (IL-2 2.5 ng/mL) [22]	4.58
SNK-6 (IL-2 2.5 ng/mL) [23]	2.49
YT (IL-2 2.5 ng/mL) [24]	4.39
[15]	4.52
[25]	0.41
[26]	1.08
[27]	1.67
[28]	0.74

CN(C)C1CCN(C(=O)c2ccc(NC(=O)Nc3ccc(-c4nc(N5CCOCC5)nc(N5CCOCC5)n4)cc3)cc2)CC1 [Gedatolisib] (max concentration tested 1000 nM)
percent inhibition of viability [%]
Settings	0.1 nM	1 nM	10 nM	100 nM	1000 nM
DERL-7 (IL-2 2.5 ng/mL) [2]	-6.47	3.75	20.5	81.6	96.8
IMC-1 (IL-2 20 ng/mL) [3]	1.19	4.03	-1.18	-2.3	34.8
KAI3 (IL-2 2.5 ng/mL) [4]	-4.82	-2.02	7.1	34.4	65.2
KHYG-1 (IL-2 2.5 ng/mL) [5]	3.45	0.68	6.16	4.39	40.9
NK-92 (IL-2 2.5 ng/mL) [6]	-8.45	-9.3	7.7	-10.2	15.7
NK-YS (IL-2 2.5 ng/mL) [7]	1.81	-3.05	18.4	56.5	75.3
NKL (IL-2 2.5 ng/mL) [8]	-11	-10.7	19.5	58.6	62
SNK-6 (IL-2 2.5 ng/mL) [9]	13	9.94	17.4	15.5	55.6
YT (IL-2 2.5 ng/mL) [10]	-1.35	-2.24	7.23	19.8	61.7
[1]	-0.13	7.4	1.57	11	38
[11]	4.43	-5.19	5.53	2.83	24.4
[12]	4.88	-18.3	3.45	-12.4	12.5
[13]	-16.6	-2.18	-0.9	7.29	33.2
[14]	-10.1	-4.3	-0.54	0.15	27.5

Settings	drug sensitivity score
DERL-7 (IL-2 2.5 ng/mL) [16]	17.5
IMC-1 (IL-2 20 ng/mL) [17]	1.45
KAI3 (IL-2 2.5 ng/mL) [18]	7.65
KHYG-1 (IL-2 2.5 ng/mL) [19]	2.77
NK-92 (IL-2 2.5 ng/mL) [20]	0.11
NK-YS (IL-2 2.5 ng/mL) [21]	12.7
NKL (IL-2 2.5 ng/mL) [22]	13.9
SNK-6 (IL-2 2.5 ng/mL) [23]	6.43
YT (IL-2 2.5 ng/mL) [24]	5.75
[15]	3.49
[25]	1.34
[26]	0.01
[27]	2.68
[28]	1.15

CC(=O)O[C@@]12CO[C@@H]1C[C@H](O)[C@@]1(C)C(=O)[C@H](O)C3=C(C)[C@@H](OC(=O)[C@H](O)[C@@H](NC(=O)OC(C)(C)C)c4ccccc4)C[C@@](O)([C@@H](OC(=O)c4ccccc4)[C@H]21)C3(C)C [Docetaxel] (max concentration tested 1000 nM)
percent inhibition of viability [%]
Settings	0.1 nM	1 nM	10 nM	100 nM	1000 nM
DERL-7 (IL-2 2.5 ng/mL) [2]	-4.53	0.19	99.5	100	100
IMC-1 (IL-2 20 ng/mL) [3]	-1.65	2.39	97.9	101	101
KAI3 (IL-2 2.5 ng/mL) [4]	-10.5	19.4	46.7	57.1	51.6
KHYG-1 (IL-2 2.5 ng/mL) [5]	-5.67	3.57	90.9	108	109
NK-92 (IL-2 2.5 ng/mL) [6]	-6.6	2.65	46	98.9	104
NK-YS (IL-2 2.5 ng/mL) [7]	-7.69	14.3	74.8	77.7	73.1
NKL (IL-2 2.5 ng/mL) [8]	-13.8	29	88.5	97.8	96.7
SNK-6 (IL-2 2.5 ng/mL) [9]	15	38.3	77.9	76.7	70.6
YT (IL-2 2.5 ng/mL) [10]	-3.12	22.3	90.7	105	105
[1]	1.57	-0.15	44.7	62.4	60.9
[11]	-5.72	-1.18	7.27	4.99	10.2
[12]	-16.6	-21.6	-3.21	-14.6	1.53
[13]	-10.9	-7.43	13.8	3.59	13.1
[14]	-13.5	-17	14	7.86	24.8

Settings	drug sensitivity score
DERL-7 (IL-2 2.5 ng/mL) [16]	30.4
IMC-1 (IL-2 20 ng/mL) [17]	30.5
KAI3 (IL-2 2.5 ng/mL) [18]	18.3
KHYG-1 (IL-2 2.5 ng/mL) [19]	29.3
NK-92 (IL-2 2.5 ng/mL) [20]	23.4
NK-YS (IL-2 2.5 ng/mL) [21]	25.9
NKL (IL-2 2.5 ng/mL) [22]	32.2
SNK-6 (IL-2 2.5 ng/mL) [23]	28.8
YT (IL-2 2.5 ng/mL) [24]	31.9
[15]	16.8
[25]	0
[26]	0
[27]	0.25
[28]	1.58
